# Experimental data reported in a flash point compilation (Sun et al. 2020).
row,Compound,flash point [°C]
1,C=CCCCCCCCCCCCCCCC [1-heptadecene],135
2,"C[C@H]1CCC[C@H](C)C1 (relative stereo) [trans-1,3-dimethylcyclohexane]",8
3,CCCCC(C)CCC (stereo not drawn) [4-methyloctane],22
4,"C=CC=C(C)C [4-methyl-1,3-pentadiene]",-18
5,CCCCCCC(C)CC (stereo not drawn) [3-methylnonane],41
6,CCc1ccccc1C(C)C [1-ethyl-2-isopropylbenzene],58
7,"CC(C)C(C)(C)C(C)C [2,3,3,4-tetramethylpentane]",11
8,"C[C@H]1CC[C@H](C)CC1 [trans-1,4-dimethylcyclohexane]",6
9,C#CCC(C)C [4-methyl-1-pentyne],-24
10,"C=CCC=CC [1,4-hexadiene]",-25
11,"C=CC(C)(C)C [3,3-dimethyl-1-butene]",-29
12,"CC(C)C(C)(C)C [2,2,3-trimethylbutane]",-24
13,CCC(CC)CC [3-ethylpentane],-12
14,C=CCCCCCCCCCCC [1-tridecene],79
15,CCC/C=C\CCC [cis-4-octene],17
16,C1CC[C@H]2CCCC[C@@H]2C1 [trans-decalin],52
17,C/C=C/CC [trans-2-pentene],-45
18,C#CCCC(C)C [5-methyl-1-hexyne],-4
19,Cc1cccc(C(C)C)c1 [m-isopropyltoluene],50
20,"C=C(C)C(C)(C)C [2,3,3-trimethyl-1-butene]",-17
21,CC/C=C\CCCC [cis-3-octene],17
22,C/C=C\CCC [cis-2-hexene],-26
23,C=CC1CCCCC1 [vinylcyclohexane],21
24,"CCC(C)CCCC(C)C (stereo not drawn) [2,6-dimethyloctane]",34
25,CCC1CCCC1 [ethylcyclopentane],-4
26,CC/C=C\CC [cis-3-hexene],-28

row,Compound,flash point [°C]
1,C/C=C/CCCC [trans-2-heptene],-6
2,CCCC1CCCCC1 [n-propylcyclohexane],31
3,"CC(C)(C)CCC(C)(C)C [2,2,5,5-tetramethylhexane]",16
4,CC#CCCCCC [2-octyne],18
5,C1=CCCCCCC1 [cyclooctene],25
6,"C[C@@H]1CCC[C@@H]1C [cis-1,2-dimethylcyclopentane]",-4
7,"C#CC(C)(C)C [3,3-dimethyl-1-butyne]",-34
8,"CC#CC(C)(C)C [4,4-dimethyl-2-pentyne]",-10
9,"C=C(C)C(C)CC (stereo not drawn) [2,3-dimethyl-1-pentene]",-17
10,C/C=C/C(C)C [trans-4-methyl-2-pentene],-34
11,C=C(CC)CCC [2-ethyl-1-pentene],-10
12,CCC/C=C/CCC [trans-4-octene],8
13,"CCCC(C)(C)C(C)(C)C [2,2,3,3-tetramethylhexane]",31
14,"C=CCC(C)(C)C [4,4-dimethyl-1-pentene]",-12
15,"CCCC(C)C(C)C (stereo not drawn) [2,3-dimethylhexane]",5
16,CCCCC1CCCCC1 [n-butylcyclohexane],48
17,C/C=C\CC [cis-2-pentene],-47
18,C=CCCC(C)C [5-methyl-1-hexene],-10
19,"CC1(C)CCCC1 [1,1-dimethylcyclopentane]",-16
20,"C1=CCCC=C1 [1,3-cyclohexadiene]",-16
21,C/C=C/CCCCC [trans-2-octene],14
22,CCC(CC)C(C)C [3-ethyl-2-methylpentane],3
23,"C[C@@H]1CCCC[C@@H]1C [cis-1,2-dimethylcyclohexane]",11
24,CC/C=C/CCCC [trans-3-octene],9
25,CCCCCC(C)C [2-methylheptane],5

# Remark: another data set of the same source
row,Compound,flash point [°C]
1,"C=CC=C(C)C [4-methyl-1,3-pentadiene]",-34
2,"C=CC(C)(C)C [3,3-dimethyl-1-butene]",-28
3,"CC(C)C(C)(C)C [2,2,3-trimethylbutane]",-6
4,C=CCCCCCCCCCCC [1-tridecene],80
5,C1CCOC1 [tetrahydrofuran],-21
6,CCCC1CCCCC1 [n-propylcyclohexane],35
7,CC#CCCCCC [2-octyne],28
8,"CCCC(C)C(C)C (stereo not drawn) [2,3-dimethylhexane]",-3
9,CCCCC1CCCCC1 [n-butylcyclohexane],41
10,"C1=CCCC=C1 [1,3-cyclohexadiene]",26
11,"C[C@@H]1CCCC[C@@H]1C [cis-1,2-dimethylcyclohexane]",12

# Remark: another data set of the same source
row,Compound,flash point [°C]
1,Cc1cccc(C(C)C)c1 [m -cymene],47.1
2,CCCCc1ccccc1C [1-butyl-2-methylbenzene],72.5
3,CCc1ccc(C(C)(C)C)cc1 [1-tert -butyl-4-ethylbenzene],76.0
4,CC(C)CCc1ccccc1 [isopentylbenzene],62.1
5,CCc1ccccc1CC [o -diethylbenzene],55.1
6,"Cc1ccc(C(C)C)cc1C [1,2-dimethyl-4-isopropylbenzene]",68.1
7,Cc1ccc(CC(C)C)cc1 [1-isobutyl-4-methylbenzene],67.4
8,CCc1ccc(C)c(C)c1 [4-ethyl-o -xylene],58.1
9,CCC(C)c1cccc(C)c1 (stereo not drawn) [1-sec -butyl-3-methylbenzene],63.1
10,CCCCCCC(C)c1ccccc1 (stereo not drawn) [(1-methylheptyl)benzene],100.1

# Remark: another data set of the same source
row,Compound,flash point [°C]
1,C=CCCCCCCCCCCCCCCC [1-heptadecene],141
2,C=CCCCCCCCCCCC [1-tridecene],92
3,CC#CCCCCC [2-octyne],24

# Remark: another data set of the same source
row,Compound,flash point [°C]
1,CC(C)CO [2-methylpropan-1-ol],28.00
2,CCCCCCCCCO [nonan-1-ol],74.00
3,C=CCN [prop-2-en-1-amine],-29.00
4,CC(C)(C)N [2-methylpropan-2-amine],10.00
5,CCOCC [ethoxyethane],-45.00
6,CCCCCCCC [octane],13.00
7,CCCCCCCO [heptan-1-ol],77.00
8,CCCCCC(C)C [2-methylheptane],4.00

# Remark: another data set of the same source
row,Compound,flash point [°C]
1,CC(O)COC(C)COC(C)CO (stereo not drawn) [2-[2-(2-hydroxypropoxy)propoxy]propan-1-ol],143.33
2,"OCC#CCO [but-2-yne-1,4-diol]",152.00
3,NCc1ccccc1 [phenylmethanamine],72.00
4,"CCN(C=O)CC [N,N-diethylformamide]",60.00
5,CCC(O)CC [pentan-3-ol],40.00
6,N#Cc1ccccn1 [2-pyridinecarbonitrile],89.00
7,"CC(C)CC(C)(C)CO [2,2,4-trimethylpentan-1-ol]",60.00
8,c1ccc(COCc2ccccc2)cc1 [phenylmethoxymethylbenzene],135.00
9,C#CCC(C)C [4-methylpent-1-yne],-4.00
10,CC=CC [but-2-ene],-73.30
11,CC(C)CO [2-methylpropan-1-ol],30.00
12,Brc1cccnc1 [3-bromopyridine],51.00
13,"CC1CNCC(C)C1 (stereo not drawn) [3,5-dimethylpiperidine]",21.50
14,"CC(O)CO (stereo not drawn) [propane-1,2-diol]",104.44
15,C1CCOC1 [tetrahydrofuran],-25.56
16,N#Cc1cccnc1 [3-pyridinecarbonitrile],84.00
17,CC(C)(CO)[C@@H](O)C(=O)NCCCO,113.00
18,"OCC(F)(F)F [2,2,2-trifluoroethanol]",29.00
19,CC(C)c1ccccc1 [isopropylbenzene],46.00
20,O=C1CCCN1C1CCCCC1 [1-cyclohexyl-2-pyrrolidinone],145.00
21,CCCCCCCCCO [nonan-1-ol],80.00
22,C=CCN [prop-2-en-1-amine],-28.00
23,C1CCC(NC2CCCCC2)CC1 [N-cyclohexylcyclohexanamine],103.00
24,"OC[C@@H](O)[C@@H](O)[C@H](O)[C@@H](O)CO [(2R,3R,4R,5S)-hexane-1,2,3,4,5,6-hexol]",148.90
25,CC(O)CNCC(C)O (stereo not drawn) [1-(2-hydroxypropylamino)propan-2-ol],126.00

row,Compound,flash point [°C]
1,COC(C)(C)C [2-methoxy-2-methylpropane],-34.44
2,CC(C)C(=O)OCC(C)(C)C(O)C(C)C (stereo not drawn),120.00
3,"CCN(CC)C(C)=O [N,N-diethylacetamide]",70.00
4,"CC(C)(O)C#CC(C)(C)O [2,5-dimethylhex-3-yne-2,5-diol]",73.90
5,C=C(C)C [2-methylprop-1-ene],-116.00
6,"OC/C=C/CO [(E)-but-2-ene-1,4-diol]",128.00
7,"NCCN [ethane-1,2-diamine]",57.20
8,C/C=C\CC [(Z)-pent-2-ene],-18.00
9,"CCC(C)(O)C#CC(C)(O)CC (stereo not drawn) [3,6-dimethyloct-4-yne-3,6-diol]",109.00
10,CC(C)(C)N [2-methylpropan-2-amine],-38.00
11,C=CCOCC1CO1 (stereo not drawn) [2-(allyloxymethyl)oxirane],48.00
12,OCCCOCCCO [3-(3-hydroxypropoxy)propan-1-ol],123.89
13,CCCCCCCN [heptan-1-amine],44.00
14,ClCOCCl [chloro-(chloromethoxy)methane],19.00
15,O=C(OCC1CCC(COC(=O)c2ccccc2)CC1)c1ccccc1 (stereo not drawn),161.00
16,"C1=CCC=C1 [cyclopenta-1,3-diene]",0.00
17,NCCOCCO [2-(2-aminoethoxy)ethanol],127.00
18,CCOCC [ethoxyethane],-40.00
19,N#Cc1ccncc1 [4-pyridinecarbonitrile],88.00
20,CCCCCCCC [octane],16.00
21,CO[C@H]1CO[C@H]2[C@@H]1OC[C@H]2OC,103.00
22,CCCCCCCO [heptan-1-ol],73.00
23,Cc1cccc(N)n1 [6-methyl-2-pyridinamine],103.00
24,"OC(CBr)CCBr (stereo not drawn) [1,4-dibromobutan-2-ol]",113.00
25,"OCCCCCCO [hexane-1,6-diol]",147.00
